Reference: US11980598B2, “N-(2-(substituted-naphth-1-yl)ethyl) substituted amide compound, preparation and uses thereof” (BEIJING GREATWAY PHARMACEUTICAL TECHNOLOGY CO., LTD., priority 2017, dated 2024)

What was measured:
Kunming mice [1] = assay: Tail suspension test (TST) in mice; format: in vivo, mouse; settings: 10 mg/kg intraperitoneal, 3 days, last 4 of 6 min
Description: (§1) Animals: Kunming mice, male, body weight 18-22 g, SPF grade; SD rats, male, body weight 150-180 g, SPF grade. The test was carried out after acclimatization, and the animal was fasted for 12 hours before the test.
(§2) All drugs for the test were suspended and dispersed in a 1% aqueous solution of hydroxypropyl methylcellulose (HPMC), and shaken well before use. […] The doses for administration were all 10 mg/kg. For the concentration and volume for administration, see J Psychiatry Neurosci 2004; 29(2):126-133. The mice were intraperitoneally administered in a volume of 0.5 mL/20 g; and the rats were administered by i.g. in a volume of 2 mL/100 g.
Mice were randomly divided into groups according to weight balance. Intraperitoneal injection was administered for three consecutive days, once a day, and the tail suspension test were performed 30 minutes after the third day. The tail suspension box was 25×25×35 cm, and a small clip was connected with a rope at the center of the top plate. An adhesive tape was stuck to the tail of the mouse 2 cm away from the tail end, and the adhesive tape was clamped with the clip to make the mouse in an inverted position. The duration of immobility was recorded during the last 4 minutes of total 6 minutes observed.

[2] = target: human MT2 receptor membrane protein (Homo sapiens (Human), UniProt P49286); assay: MT2 receptor binding test ([3H]-Melotonin competition); settings: for MT2 binding ratio (I %): prescreening, 10^−5 M
Sequence of human MT2 receptor membrane protein (P49286 whole entry): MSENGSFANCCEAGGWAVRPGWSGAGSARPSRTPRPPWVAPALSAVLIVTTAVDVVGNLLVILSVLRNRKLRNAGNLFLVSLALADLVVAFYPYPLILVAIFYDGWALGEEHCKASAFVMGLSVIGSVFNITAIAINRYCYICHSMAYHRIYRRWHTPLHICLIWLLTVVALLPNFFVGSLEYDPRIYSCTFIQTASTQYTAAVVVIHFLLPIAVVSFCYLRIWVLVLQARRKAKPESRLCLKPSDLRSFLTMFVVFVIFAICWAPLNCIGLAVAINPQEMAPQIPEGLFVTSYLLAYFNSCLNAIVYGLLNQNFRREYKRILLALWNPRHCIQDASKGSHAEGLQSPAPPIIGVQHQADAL
Description: (§3) The receptors included a MT1/MT2 receptor and a 5-HT2C receptor. The test was divided into two parts: prescreening and rescreening. The results of prescreening were expressed as the percentage of binding, and the results of rescreening were expressed as the IC50 value (in M, i.e., mol/L).
(§4) (3) Tris-HCl buffer formulation: 50 mM Tris-HCl Buffer, 1 mM EDTA, 5 mM MgCl2, 0.1% NaN3, and then a certain proportion of PMSF was added to make pH 7.4.
(§5) (4) The example compound to be tested was dissolved in DMSO and formulated as a stock solution of 10^−2 M, and then diluted with distilled water to a concentration gradient of […]. The prescreening of the MT receptor binding test was performed at the concentration of 10^−5 M; the prescreening of the 5-HT2C receptor binding test was performed at the concentrations of 10^−5 and 10^−7 M.
(§6) The statistical analysis was performed using GraphPad Prism 5.0 software. The formula for receptor binding test was: inhibition (%)=[(total CPM of binding−CPM of tube with drug)/(total CPM of binding−non-specific CPM)]×100%, wherein CPM was count of a radioactive intensity.
(§7) 10 μL of receptor membrane protein MT1 or MT2 was added to all the tubes. In non-specific binding tubes, 50 μL of a corresponding unlabeled ligand Ago at a concentration of 10^4 M was added to a final concentration of 10 μM, and pre-reacted for 30 minutes. In test tubes, 30 μL of test drug (MT1: a concentration of 10^4-10^−10 M, MT2: a concentration of […]) was added, respectively; all tubes were added with 40 μL [^3H]-Melotonin, respectively. […] The filter paper was taken out and dried by baking, and then placed in a scintillation bottle. 1 mL of the scintillation liquid was added, and the radioactive intensity was measured by a liquid scintillation counter.

[3] = target: human MT1 receptor membrane protein (Homo sapiens (Human), UniProt P48039); assay: MT1 receptor binding test ([3H]-Melotonin competition); settings: for MT1 binding ratio (I %): prescreening, 10^−5 M
Sequence of human MT1 receptor membrane protein (P48039 whole entry): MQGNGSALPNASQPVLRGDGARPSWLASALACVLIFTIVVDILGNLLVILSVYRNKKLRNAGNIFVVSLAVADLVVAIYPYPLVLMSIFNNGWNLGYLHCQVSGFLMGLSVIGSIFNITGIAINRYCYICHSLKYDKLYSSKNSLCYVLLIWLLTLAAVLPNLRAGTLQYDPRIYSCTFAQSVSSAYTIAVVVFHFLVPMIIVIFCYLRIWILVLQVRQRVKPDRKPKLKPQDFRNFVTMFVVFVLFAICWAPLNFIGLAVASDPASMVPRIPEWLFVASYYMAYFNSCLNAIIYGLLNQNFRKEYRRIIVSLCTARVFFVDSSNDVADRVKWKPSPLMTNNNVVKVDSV
Description: as §3, §4, §5, §6, §7

Kunming mice [4] = assay: Forced mouse swimming test; format: in vivo; settings: 10 mg/kg intraperitoneal, 3 days, last 4 of 6 min
Description: as §1, §2
Animal grouping and administration method were the same as those in the tail suspension test in mice. The mice were placed in a round glass vessel with a height of 20 cm, an inner diameter of 12 cm, a water depth of 10 cm and a water temperature of 25° C.

SD rats = assay: Forced rat swimming test; format: in vivo; settings: 10 mg/kg i.g., 3 days, last 5 of 6 min
Description: as §1, §2
Rats were randomly divided into groups according to weight balance. Rats were administered by i.g. for three consecutive days, once a day. One hour after administration on the third day, the forced swimming test was performed. The rats were placed in a round glass jar with a height of 40 cm, an inner diameter of 18 cm, a water depth of 23 cm, and a water temperature of 25° C. The rats were allowed to swim for 6 minutes, and the accumulated immobility time in the last 5 minutes was recorded.

[5] = In vitro metabolism study, human liver microsomal incubation system; format: in vitro ADME
Description: TSQ Quantum liquid chromatography-mass spectrometer (LC/MS/MS) from Finnigan Inc, USA, chromatography column: TSKgel Amide-80 column (2.0 mm I.D.×100 mm, 5 μm); mobile phase: acetonitrile-water-formic acid (50:50:0.1); flow rate: 0.2 mL/min; injection volume: 5 μL; column temperature: room temperature. Ionization source is electrospray ionization (ESI) with 4.8 KV of spray voltage; capillary temperature (TEM): 300° C.; sheath gas: N2, flow rate: 10 psi; auxiliary gas: N2, flow rate: 1 psi; collision gas (CID): Ar at a pressure of 1.5 mTorr. The mass spectrometry scanning method was selective reaction monitoring (SRM) and detected by positive ion method. The internal standard was a […] solution of aconitine in acetonitrile, the minimum limit of quantification was 5 ng/mL, and the correlation coefficient was >0.99.
Approximately 10 mg of each sample to be tested was accurately weighed, dissolved in 0.1 mL of DMSO, and serially diluted with purified water to a 10 μM, 1 μM standard stock solution. An ice bath was operated and the incubation system for detection was formulated according to Table 4. NADPH was added to the incubation system to start the reaction, and then 50 μL was immediately added to 150 μL acetonitrile as a zero-time sample and a 1 μM standard curve sample. Another 1 μM standard stock solution was added to the incubation system, and then 50 μL was immediately added to 150 μL acetonitrile as a 0.1 μM standard curve sample. […] Each sample was shaken, and centrifuged at 18000 g for 10 min. The supernatant was taken for LC/MS/MS injection and determination.

[6] = incubation time 0 min, 1 μM, 1 mg/mL microsome, 37° C.

| Structure (SMILES) | Immobility time (Kunming mice [1]) | MT2 binding ratio (I %) [2] | IC50 ([2]; rescreening) | MT1 binding ratio (I %) [3] | IC50 ([3]; rescreening) | Immobility time (Kunming mice [4]) | Immobility time (SD rats) | Concentration measured at incubation time point [5, 6] | Concentration measured at incubation time point ([5]; incubation time 5 min) | Concentration measured at incubation time point ([5]; incubation time 15 min) | Concentration measured at incubation time point ([5]; incubation time 30 min) | melting point |
| --- | --- | --- | --- | --- | --- | --- | --- | --- | --- | --- | --- | --- |
| COc1cc2c(CCNC(C)=O)cccc2cc1F [Example 4, N-(2-(6-fluoro-7-methoxy-naphthalen-1-yl)ethyl)acetamide] | 76.6 ± 18.4 s | 84% | 0.67 ± 0.08 nM | 77% | 0.23 ± 0.24 nM | 75.6 ± 26.7 s | 71.4 ± 40.3 s | 1001 ± 17 nM | 601 ± 9 nM | 48 ± 3 nM | 11 ± 2 nM | 140 to 144 °C |
| [2H]C([2H])([2H])Oc1cc2c(CCNC(C)=O)cccc2cc1F [Example 3, N-(2-(6-fluoro-7-deuteromethoxy-naphthalen-1-yl)ethyl)acetamide] | 77.7 ± 28.6 s | 57% | – | 66% | – | 83.3 ± 30.7 s | 76.1 ± 30.2 s | 1000 ± 41 nM | 395 ± 47 nM | 29 ± 2 nM | – | 141 to 144 °C |
| [2H]C([2H])([2H])Oc1ccc2cccc(CCNC(C)=O)c2c1 [d3-Ago, d3-Agomelatine, reference compound] | – | – | – | – | – | – | – | 999 ± 103 nM | 235 ± 22 nM | 4 ± 3 nM | – | – |
| [2H]C([2H])([2H])Oc1cc2c(CCNC(=O)CC)cccc2cc1Cl [Example 5, N-(2-(6-chloro-7-deuteromethoxy-naphthalen-1-yl)ethyl)propanamide] | 68.8 ± 17.3 s | 44% | – | 81% | – | 96.4 ± 14.4 s | 66.2 ± 35.1 s | 1000 ± 32 nM | 675 ± 44 nM | 116 ± 10 nM | – | – |
| CCC(=O)NCCc1cccc2cc(F)c(OC)cc12 [Example 7, N-(2-(6-fluoro-7-methoxy-naphthalen-1-yl)ethyl)propanamide] | – | 69% | – | 73% | – | – | – | 1000 ± 35 nM | 505 ± 33 nM | 65 ± 7 nM | – | – |
| CCC(=O)NCCc1cccc2cc(Cl)c(OC)cc12 [Example 6, N-(2-(6-chloro-7-methoxy-naphthalen-1-yl)ethyl)propanamide] | – | 36% | – | 77% | – | – | – | 1000 ± 42 nM | 471 ± 51 nM | 56 ± 5 nM | – | – |
| COc1cc2c(CCNC(C)=O)cccc2cc1Cl [Example 2, N-(2-(6-chloro-7-methoxy-naphthalen-1-yl)ethyl)acetamide] | 69.4 ± 23.3 s | 78% | – | 84% | – | 81.3 ± 20.3 s | 61.3 ± 29.8 s | 1000 ± 36 nM | 420 ± 79 nM | 39 ± 3 nM | – | – |
